This note sets out measurements from patent US9090628B2, “Benzoxazepin compounds selective for PI3K P110 delta and methods of use” (GENENTECH, INC., priority 2011, dated 2015).

Broadly, the IC50 is the midpoint of a concentration-inhibition curve. Higher therefore signals lower potency.

For test [1], the target named is p110 delta (Homo sapiens (Human), UniProt O00329). The experiment in a line: PI3K isoform inhibition assay, p110 delta (fluorescence polarization displacement). The class given is biochemical. In general terms: Polarisation of emitted light reports the rotation of a fluorescent probe.
Test [2] addresses p110 alpha (Homo sapiens (Human), UniProt P42336). The experiment in a line: PI3K isoform inhibition assay, p110 alpha (for alpha/delta selectivity). The settings on record: ratio of biochemical IC50 values. An outline of the steps:
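Fluorescence polarization displacement of a fluorescent PIP3 probe from GRP-1 detector by PI3K-formed PIP3; p110α/p85α at 40 ng/mL with 10 μM PIP2 substrate.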

Chain of p110 alpha (P42336 whole entry, canonical isoform): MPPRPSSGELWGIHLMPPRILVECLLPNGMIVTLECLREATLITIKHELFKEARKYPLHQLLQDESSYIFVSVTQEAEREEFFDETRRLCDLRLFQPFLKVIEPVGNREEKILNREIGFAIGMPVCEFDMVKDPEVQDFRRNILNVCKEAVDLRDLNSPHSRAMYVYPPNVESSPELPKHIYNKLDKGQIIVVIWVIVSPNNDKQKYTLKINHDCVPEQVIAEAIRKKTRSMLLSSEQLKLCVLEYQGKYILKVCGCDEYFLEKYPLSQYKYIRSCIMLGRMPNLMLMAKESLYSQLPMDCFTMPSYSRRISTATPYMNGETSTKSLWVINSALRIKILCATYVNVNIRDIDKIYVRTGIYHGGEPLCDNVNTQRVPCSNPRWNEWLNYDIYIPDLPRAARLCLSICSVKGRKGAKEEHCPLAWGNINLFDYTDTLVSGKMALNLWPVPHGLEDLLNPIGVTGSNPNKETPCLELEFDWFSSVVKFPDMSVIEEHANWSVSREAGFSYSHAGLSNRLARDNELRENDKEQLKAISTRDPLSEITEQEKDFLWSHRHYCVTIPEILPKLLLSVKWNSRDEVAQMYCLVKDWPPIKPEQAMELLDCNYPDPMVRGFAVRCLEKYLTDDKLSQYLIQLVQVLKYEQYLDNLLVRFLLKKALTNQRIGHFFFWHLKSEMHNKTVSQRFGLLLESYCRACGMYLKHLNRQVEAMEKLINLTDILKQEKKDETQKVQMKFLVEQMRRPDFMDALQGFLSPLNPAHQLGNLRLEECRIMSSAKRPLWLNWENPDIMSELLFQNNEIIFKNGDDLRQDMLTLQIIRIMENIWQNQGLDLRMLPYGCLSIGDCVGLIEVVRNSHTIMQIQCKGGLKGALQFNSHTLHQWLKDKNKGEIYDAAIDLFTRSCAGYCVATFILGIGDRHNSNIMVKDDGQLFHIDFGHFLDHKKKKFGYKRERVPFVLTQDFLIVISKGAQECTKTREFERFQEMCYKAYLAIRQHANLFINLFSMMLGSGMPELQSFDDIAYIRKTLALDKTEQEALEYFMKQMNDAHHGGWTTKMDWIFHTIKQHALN
Chain of p110 alpha (P27986 whole entry partner, canonical isoform): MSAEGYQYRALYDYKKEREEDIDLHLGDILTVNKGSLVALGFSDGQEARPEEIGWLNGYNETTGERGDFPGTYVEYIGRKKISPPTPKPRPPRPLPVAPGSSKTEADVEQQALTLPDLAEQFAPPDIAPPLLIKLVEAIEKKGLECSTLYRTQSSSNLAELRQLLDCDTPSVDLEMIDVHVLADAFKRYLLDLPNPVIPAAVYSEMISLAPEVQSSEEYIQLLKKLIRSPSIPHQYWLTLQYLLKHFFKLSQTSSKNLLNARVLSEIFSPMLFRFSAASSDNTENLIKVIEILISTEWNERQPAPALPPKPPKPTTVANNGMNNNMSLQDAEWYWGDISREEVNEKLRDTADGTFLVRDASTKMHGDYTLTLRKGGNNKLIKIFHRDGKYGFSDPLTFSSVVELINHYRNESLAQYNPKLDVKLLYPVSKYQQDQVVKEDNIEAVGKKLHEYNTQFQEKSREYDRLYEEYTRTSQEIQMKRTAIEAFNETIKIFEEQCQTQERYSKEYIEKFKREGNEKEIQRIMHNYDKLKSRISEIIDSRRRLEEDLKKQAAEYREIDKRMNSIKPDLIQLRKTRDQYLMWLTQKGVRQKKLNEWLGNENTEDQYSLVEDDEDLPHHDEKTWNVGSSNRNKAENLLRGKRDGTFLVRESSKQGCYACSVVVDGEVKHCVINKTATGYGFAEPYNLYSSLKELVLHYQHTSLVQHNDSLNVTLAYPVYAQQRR
Chain of p110 delta (O00329 whole entry, canonical isoform): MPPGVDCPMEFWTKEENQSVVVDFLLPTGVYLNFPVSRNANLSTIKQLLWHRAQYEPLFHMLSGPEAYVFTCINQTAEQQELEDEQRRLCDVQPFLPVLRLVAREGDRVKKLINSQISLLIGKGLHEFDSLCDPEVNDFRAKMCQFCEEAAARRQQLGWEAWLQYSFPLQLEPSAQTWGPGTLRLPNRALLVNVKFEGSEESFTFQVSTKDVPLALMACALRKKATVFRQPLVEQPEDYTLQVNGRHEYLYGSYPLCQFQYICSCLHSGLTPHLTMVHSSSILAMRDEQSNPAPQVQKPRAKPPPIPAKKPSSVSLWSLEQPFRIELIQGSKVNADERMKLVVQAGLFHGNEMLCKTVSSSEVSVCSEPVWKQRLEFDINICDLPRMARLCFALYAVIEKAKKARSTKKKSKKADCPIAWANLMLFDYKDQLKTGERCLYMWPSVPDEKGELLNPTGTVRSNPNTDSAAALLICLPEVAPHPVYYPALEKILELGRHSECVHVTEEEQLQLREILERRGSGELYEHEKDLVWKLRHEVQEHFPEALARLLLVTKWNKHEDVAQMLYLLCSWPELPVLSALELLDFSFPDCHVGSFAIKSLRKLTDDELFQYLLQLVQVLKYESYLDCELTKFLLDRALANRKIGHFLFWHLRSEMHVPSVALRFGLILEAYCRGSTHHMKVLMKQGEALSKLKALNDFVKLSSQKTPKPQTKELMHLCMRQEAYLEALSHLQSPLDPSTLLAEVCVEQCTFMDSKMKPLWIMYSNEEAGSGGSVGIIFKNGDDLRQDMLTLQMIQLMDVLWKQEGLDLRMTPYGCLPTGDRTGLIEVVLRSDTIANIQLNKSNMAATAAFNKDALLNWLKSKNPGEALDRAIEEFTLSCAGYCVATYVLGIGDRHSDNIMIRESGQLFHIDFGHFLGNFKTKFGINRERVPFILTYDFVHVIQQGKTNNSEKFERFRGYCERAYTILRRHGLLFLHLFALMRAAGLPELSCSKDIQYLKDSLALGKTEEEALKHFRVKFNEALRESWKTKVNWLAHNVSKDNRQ
Chain of p110 delta (P27986 whole entry partner, canonical isoform): as the sequence (P27986 whole entry partner, canonical isoform) above

As for `Cc1nc(-c2cn3c(n2)-c2ccc(N4CCCC45CCCN(C(C)C)C5)cc2OCC3)n(C(C)C)n1` (centres unmarked) [Example 337, 9-(7-isopropyl-1,7-diazaspiro[4.5]decan-1-yl)-2-(2-isopropyl-5-methyl-1,2,4-triazol-3-yl)-5,6-dihydroimidazo[1,2-d][1,4]benzoxazepine], the IC50 in test [1] worked out at 1.52 nM. Further, in test [2], the “IC50 p110 alpha/IC50 p110 delta” value was 47.9.

Consider `Cc1nc(-c2cn3c(n2)-c2cc([C@@H](C)N4CCN(C(C)C)CC4)c(F)cc2OCC3)n(C(C)C)n1` [Example 338, (R)-9-fluoro-2-(1-isopropyl-3-methyl-1H-1,2,4-triazol-5-yl)-10-(1-(4-isopropylpiperazin-1-yl)ethyl)-5,6-dihydrobenzo[f]imidazo[1,2-d][1,4]oxazepine], for which, in test [1], the IC50 amounted to 1.48 nM. Also, the “IC50 p110 alpha/IC50 p110 delta” value in test [2] was 114.

`CCN(CC)C1CCOC(c2c(-c3ccc4c(c3)OCCn3cc(-c5nc(C)nn5C(C)C)nc3-4)cnn2C)C1` (centres unmarked) [Example 339, N,N-diethyl-2-[4-[2-(2-isopropyl-5-methyl-1,2,4-triazol-3-yl)-5,6-dihydroimidazo[1,2-d][1,4]benzoxazepin-9-yl]-2-methyl-pyrazol-3-yl]tetrahydropyran-4-amine]: the IC50 in test [1] came to 1.07 nM. In addition, the “IC50 p110 alpha/IC50 p110 delta” value in test [2] is 61.5.

For `Cc1nc(-c2cn3c(n2)-c2cc([C@H](C)N4CCN(C(C)C)CC4)c(F)cc2OCC3)n(C(C)C)n1` [Example 340, (S)-9-fluoro-2-(1-isopropyl-3-methyl-1H-1,2,4-triazol-5-yl)-10-(1-(4-isopropylpiperazin-1-yl)ethyl)-5,6-dihydrobenzo[f]imidazo[1,2-d][1,4]oxazepine], the 50% inhibitory concentration (IC50) in test [1] was found to be 2.32 nM. Besides, in test [2], the “IC50 p110 alpha/IC50 p110 delta” value was 25.8.

In the case of `CCN(CC)C1CCOC(c2c(-c3ccc4c(c3)OCCn3cc(-c5nc(C)nn5C(C)C)nc3-4)cnn2C)C1` (centres unmarked) [Example 341, N,N-diethyl-2-[4-[2-(2-isopropyl-5-methyl-1,2,4-triazol-3-yl)-5,6-dihydroimidazo[1,2-d][1,4]benzoxazepin-9-yl]-2-methyl-pyrazol-3-yl]tetrahydropyran-4-amine], in test [1], the IC50 is 0.771 nM. Besides, in test [2], the “IC50 p110 alpha/IC50 p110 delta” value was 71.1.

`Cc1nc(-c2cn3c(n2)-c2ccc(N4CCC4[C@@H]4CCCN(C(C)C)C4)cc2OCC3)n(C(C)C)n1` (stereo partly drawn) [Example 342, 2-(1-isopropyl-3-methyl-1H-1,2,4-triazol-5-yl)-9-(2-((R)-1-isopropylpiperidin-3-yl)azetidin-1-yl)-5,6-dihydrobenzo[f]imidazo[1,2-d][1,4]oxazepine] came in with an IC50 in test [1] of 0.16 nM. Moreover, in test [2], the “IC50 p110 alpha/IC50 p110 delta” value was determined as 21.3.

Compound `Cc1nc(-c2cn3c(n2)-c2ccc(-c4cnn(C)c4C4CC(N(C)C(C)C)CCO4)cc2OCC3)n(C(C)C)n1` (centres unmarked) [Example 343, N-isopropyl-2-[4-[2-(2-isopropyl-5-methyl-1,2,4-triazol-3-yl)-5,6-dihydroimidazo[1,2-d][1,4]benzoxazepin-9-yl]-2-methyl-pyrazol-3-yl]-N-methyl-tetrahydropyran-4-amine] returned an IC50 in test [1] of 0.939 nM. In test [2], the “IC50 p110 alpha/IC50 p110 delta” value was 53.

In test [1], `Cc1nc(-c2cn3c(n2)-c2ccc(-c4cnn(C)c4C4CC(N(C)C(C)C)CCO4)cc2OCC3)n(C(C)C)n1` (centres unmarked) [Example 344, N-isopropyl-2-[4-[2-(2-isopropyl-5-methyl-1,2,4-triazol-3-yl)-5,6-dihydroimidazo[1,2-d][1,4]benzoxazepin-9-yl]-2-methyl-pyrazol-3-yl]-N-methyl-tetrahydropyran-4-amine] came in with an IC50 of 1.23 nM. The “IC50 p110 alpha/IC50 p110 delta” value in test [2] is 66.

Consider `Cc1nc(-c2cn3c(n2)-c2cc(C(C)N4CCN(C5COC5)CC4)c(C)cc2OCC3)n(C(C)C)n1` (centres unmarked) [Example 345, 2-(2-isopropyl-5-methyl-1,2,4-triazol-3-yl)-9-methyl-10-[1-[4-(oxetan-3-yl)piperazin-1-yl]ethyl]-5,6-dihydroimidazo[1,2-d][1,4]benzoxazepine], for which the IC50 in test [1] was 8.82 nM. For the same compound, the “IC50 p110 alpha/IC50 p110 delta” value in test [2] worked out at 14.3.

Take `Cc1nc(-c2cn3c(n2)-c2ccc(N4CCCC4CN(C)C)cc2OCC3)n(C(C)C)n1` (centres unmarked) [Example 346, 1-[1-[2-(2-isopropyl-5-methyl-1,2,4-triazol-3-yl)-5,6-dihydroimidazo[1,2-d][1,4]benzoxazepin-9-yl]pyrrolidin-2-yl]-N,N-dimethyl-methanamine]: the IC50 in test [1] worked out at 0.288 nM. Moreover, in test [2], the “IC50 p110 alpha/IC50 p110 delta” value is on record as 23.

For the compound `Cc1nc(-c2cn3c(n2)-c2cc([C@@H](C)N4CCN(C(C)(C)CO)CC4)c(F)cc2OCC3)n(C(C)C)n1` [Example 347, (R)-2-(4-(1-(9-fluoro-2-(1-isopropyl-3-methyl-1H-1,2,4-triazol-5-yl)-5,6-dihydrobenzo[f]imidazo[1,2-d][1,4]oxazepin-10-yl)ethyl)piperazin-1-yl)-2-methylpropan-1-ol], in test [1], the IC50 worked out at 5.53 nM. Moreover, the “IC50 p110 alpha/IC50 p110 delta” value in test [2] is given as 47.5.

`Cc1nc(-c2cn3c(n2)-c2ccc(N4CCCC4CN(C)C)cc2OCC3)n(C(C)C)n1` (centres unmarked) [Example 348, 1-[1-[2-(2-isopropyl-5-methyl-1,2,4-triazol-3-yl)-5,6-dihydroimidazo[1,2-d][1,4]benzoxazepin-9-yl]pyrrolidin-2-yl]-N,N-dimethyl-methanamine] registered an IC50 in test [1] of 0.445 nM. Moreover, the “IC50 p110 alpha/IC50 p110 delta” value in test [2] is 31.4.

`Cc1nc(-c2cn3c(n2)-c2cc(C(C)N4CCN(CC(C)(C)O)CC4)c(C)cc2OCC3)n(C(C)C)n1` (centres unmarked) [Example 349, 1-[4-[1-[2-(2-isopropyl-5-methyl-1,2,4-triazol-3-yl)-9-methyl-5,6-dihydroimidazo[1,2-d][1,4]benzoxazepin-l0-yl]ethyl]piperazin-1-yl]-2-methyl-propan-2-ol] came in with an IC50 in test [1] of 4.21 nM. For the same compound, the “IC50 p110 alpha/IC50 p110 delta” value in test [2] is listed as 18.1.

`Cc1nc(-c2cn3c(n2)-c2cc([C@H](C)N4CCN(C(C)(C)CO)CC4)c(F)cc2OCC3)n(C(C)C)n1` [Example 350, (S)-2-(4-(1-(9-fluoro-2-(1-isopropyl-3-methyl-1H-1,2,4-triazol-5-yl)-5,6-dihydrobenzo[f]imidazo[1,2-d][1,4]oxazepin-10-yl)ethyl)piperazin-1-yl)-2-methylpropan-1-ol] returned an IC50 in test [1] of 1.99 nM. Besides, the “IC50 p110 alpha/IC50 p110 delta” value in test [2] is on record as 212.

On to `Cc1nc(-c2cn3c(n2)-c2cc(-c4ccnn4[C@@H]4CCCN(C5COC5)C4)c(F)cc2OCC3)n(C(C)C)n1` [Example 351, (R)-9-fluoro-2-(1-isopropyl-3-methyl-1H-1,2,4-triazol-5-yl)-10-(1-(1-(oxetan-3-yl)piperidin-3-yl)-1H-pyrazol-5-yl)-5,6-dihydrobenzo[f]imidazo[1,2-d][1,4]oxazepine], for which the IC50 in test [1] stood at 2.21 nM. In addition, the “IC50 p110 alpha/IC50 p110 delta” value in test [2] was 16.6.

`Cc1nc(-c2cn3c(n2)-c2cc(-c4ccnn4[C@H]4CCCN(C5COC5)C4)c(F)cc2OCC3)n(C(C)C)n1` [Example 352, (S)-9-fluoro-2-(1-isopropyl-3-methyl-1H-1,2,4-triazol-5-yl)-10-(1-(1-(oxetan-3-yl)piperidin-3-yl)-1H-pyrazol-5-yl)-5,6-dihydrobenzo[f]imidazo[1,2-d][1,4]oxazepine] gave an IC50 in test [1] of 11.5 nM. Moreover, the “IC50 p110 alpha/IC50 p110 delta” value in test [2] worked out at 18.

In the case of `Cc1nc(-c2cn3c(n2)-c2cc(-c4ccnn4C4CCCN(C(C)(C)CO)C4)c(F)cc2OCC3)n(C(C)C)n1` [Example 353, (R)-2-(3-(5-(9-fluoro-2-(1-isopropyl-3-methyl-1H-1,2,4-triazol-5-yl)-5,6-dihydrobenzo[f]imidazo[1,2-d][1,4]oxazepin-10-yl)-1H-pyrazol-1-yl)piperidin-1-yl)-2-methylpropan-1-ol], in test [1], the IC50 was 0.314 nM. Also, the “IC50 p110 alpha/IC50 p110 delta” value in test [2] stood at 151.

Take `Cc1nc(-c2cn3c(n2)-c2cc(-c4cnn(C)c4C4CC(N(C)C)CCO4)c(F)cc2OCC3)n(C(C)C)n1` (centres unmarked) [Example 354, 2-[4-[9-fluoro-2-(2-isopropyl-5-methyl-1,2,4-triazol-3-yl)-5,6-dihydroimidazo[1,2-d][1,4]benzoxazepin-10-yl]-2-methyl-pyrazol-3-yl]-N,N-dimethyl-tetrahydropyran-4-amine]: in test [1], the IC50 was determined as 0.66 nM. In addition, in test [2], the “IC50 p110 alpha/IC50 p110 delta” value is reported as 14.5.

`Cc1nc(-c2cn3c(n2)-c2cc(-c4ccnn4C4CCCN(C(C)(C)CO)C4)c(F)cc2OCC3)n(C(C)C)n1` [Example 355, (R)-2-(3-(5-(9-fluoro-2-(1-isopropyl-3-methyl-1H-1,2,4-triazol-5-yl)-5,6-dihydrobenzo[f]imidazo[1,2-d][1,4]oxazepin-10-yl)-1H-pyrazol-1-yl)piperidin-1-yl)-2-methylpropan-1-ol] yielded an IC50 in test [1] of 0.415 nM. In addition, the “IC50 p110 alpha/IC50 p110 delta” value in test [2] was determined as 46.4.

In test [1], `COc1cc2c(cc1[C@@H](C)N1CCN(C(C)(C)C)CC1)-c1nc(-c3nc(C)nn3C(C)C)cn1CCO2` [Example 356, (R)-10-(1-(4-tert-butylpiperazin-1-yl)ethyl)-2-(1-isopropyl-3-methyl-1H-1,2,4-triazol-5-yl)-9-methoxy-5,6-dihydrobenzo[f]imidazo[1,2-d][1,4]oxazepine] had an IC50 of 1.05 nM. Also, the “IC50 p110 alpha/IC50 p110 delta” value in test [2] came out at 45.5.

The compound `COc1cc2c(cc1[C@H](C)N1CCN(C(C)(C)C)CC1)-c1nc(-c3nc(C)nn3C(C)C)cn1CCO2` [Example 357, (S)-10-(1-(4-tert-butylpiperazin-1-yl)ethyl)-2-(1-isopropyl-3-methyl-1H-1,2,4-triazol-5-yl)-9-methoxy-5,6-dihydrobenzo[f]imidazo[1,2-d][1,4]oxazepine] gave an IC50 in test [1] of 0.784 nM. Also, the “IC50 p110 alpha/IC50 p110 delta” value in test [2] came to 116.

In test [1], `Cc1nc(-c2cn3c(n2)-c2cc(-c4cnn(C)c4C4CCCN(C(C)C)C4)c(F)cc2OCC3)n(C(C)C)n1` (centres unmarked) [Example 358, 9-fluoro-2-(2-isopropyl-5-methyl-1,2,4-triazol-3-yl)-10-[5-(1-isopropyl-3-piperidyl)-1-methyl-pyrazol-4-yl]-5,6-dihydroimidazo[1,2-d][1,4]benzoxazepine] had an IC50 of 1.56 nM. Besides, in test [2], the “IC50 p110 alpha/IC50 p110 delta” value is listed as 67.1.
